{"source": "patent US20250268884A1", "about": "“Deuterated Domperidone for Treating Gastroparesis” (CinDome Pharma, Inc., priority 2022, published 2025)", "key": {"[1]": {"system": "adults with idiopathic or diabetic gastroparesis", "assay": "ANMS GCSI-DD total and subscale scores, ANMS GCSI-DD manual scoring method, Phase 2a", "format": "in vivo, human", "source_text": "As known in the art, the ANMS GCSI-DD covers 5 core relevant symptoms of gastroparesis: nausea, early satiety, postprandial fullness, upper abdominal pain and vomiting. Bloating is included as an exploratory symptom. Symptoms are rated on a severity numeric response scale from 0 (none) to 4 (very severe). Vomiting is captured on a frequency response scale and scored as follows: 0 for no episodes, 1 for one episode, 2 for 2 episodes, 3 for 3 episodes, and 4 for 4 or more episodes. In some embodiments, subjects recall symptoms over the previous 24 hours and completes the ANMS GCSI-DD patient-reported symptom questionnaire. In certain embodiments, the total ANMS GCSI-DD score is calculated as the mean of the 3 subscale scores for severity of nausea/vomiting, postprandial fullness/early satiety, and bloating. See, e.g., “The Use Manual for the ANMS GCSI-DD,” American Neurogastroenterology and Motility Society Gastroparesis Cardinal Symptom Index Daily Diary, 2018; https://www.fda.gov/media/125038/download. In other embodiments, the total ANMS GCSI-DD score is calculated using the ‘manual’ scoring method. The ANMS GCSI-DD manual scoring method is generated by summing the scores on each of the five symptom items (nausea, early satiety, postprandial fullness, upper abdominal pain, and number of vomiting episodes) and then dividing by 5, that is the number of items within the gastroparesis related symptom score. […] The ANMS GCSI-DD gastroparesis symptom daily score can range from 0 to 4. High scores on the ANMS GCSI-DD reflect greater symptom severity. See, e.g., “User Manuel for the ANMS GCSI-DD,” Federal Drug Administration at https://www.fda.gov/media/125038/download, which is hereby incorporated by reference.\nThe severity scores of 4 gastroparesis-related symptoms (nausea, early satiety, postprandial fullness, upper abdominal pain) range from 0-none to 4-very severe. The vomiting score assesses the number of vomiting episodes during the day, capped at a maximum of 4; thus, the scores for vomiting range from 0 (no episodes of vomiting) to 4 (4 or more episodes of vomiting). Vomiting frequency is scored as 0 episodes, 1 episode, 2 episodes, 3 episodes, or 4 or more episodes (capped as 4).\nTable 11 presents the ANMS GCSI-DD total and subscale scores and change and percent change from baseline for the ITT Population using the ANMS GC SI-DD Manual scoring method. […] Subjects receiving placebo also experienced decreases in ANMS GCSI-DD total and subscale scores."}, "[2]": {"system": "adults with idiopathic or diabetic gastroparesis", "assay": "Clinical Grading Assessment Scale / CPGAS, Day 14, Phase 2a", "format": "in vivo, human", "details": "Day 14, ITT; for CPGAS score, investigator, mean (SD) / CPGAS score, subject, mean (SD): scale +7 to −7", "source_text": "For assessment of global clinical response, the following question was utilized at Day 14: “In thinking about the last 2 weeks, how would you say your stomach/gastroparesis-related problems/symptoms have been compared to the period before you started treatment on this study?” Responses were the following: improved, no change, or worsened. Subjects were asked to quantify their therapeutic response using the Clinical Patient Grading Assessment Scale. Subjects picked a number over a range (+7=completely better; 0=no change; −7=very much worse) that best answered the question."}}, "data": [{"molecule": "[2H]c1c([2H])c([2H])c2c([nH]c(=O)n2CCCN2CCC(n3c(=O)[nH]c4cc(Cl)ccc43)CC2)c1[2H]", "note": "[Deudomperidone, 1-{3-[4-(5-chloro-2-oxo-2,3-dihydro-1H-1,3-benzodiazol-1-yl)piperidin-1yl]propyl}-2,3-dihydro(4,5,6,7-D4)-1H-1,3-benzodiazol-2-one]", "values": [{"measurement": "ANMS GCSI-DD early satiety subscale score, Baseline", "setting": "[1]; 20 mg QD, mean, ITT Population", "result": 2.64}, {"measurement": "ANMS GCSI-DD early satiety subscale score, Change from baseline to Day 14/EOT", "setting": "[1]; 20 mg QD, mean, ITT Population", "result": "−1.44"}, {"measurement": "ANMS GCSI-DD early satiety subscale score, Day 14/EOT", "setting": "[1]; 20 mg QD, mean, ITT Population", "result": 1.20}, {"measurement": "ANMS GCSI-DD early satiety subscale score, Percent change from baseline to Day 14/EOT", "setting": "[1]; 20 mg QD, mean, ITT Population", "result": "−54.88", "unit": "%"}, {"measurement": "ANMS GCSI-DD nausea subscale score, Baseline", "setting": "[1]; 20 mg QD, mean, ITT Population", "result": 2.67}, {"measurement": "ANMS GCSI-DD nausea subscale score, Change from baseline to Day 14/EOT", "setting": "[1]; 20 mg QD, mean, ITT Population", "result": "−1.93"}, {"measurement": "ANMS GCSI-DD nausea subscale score, Day 14/EOT", "setting": "[1]; 20 mg QD, mean, ITT Population", "result": 0.73}, {"measurement": "ANMS GCSI-DD nausea subscale score, Percent change from baseline to Day 14/EOT", "setting": "[1]; 20 mg QD, mean, ITT Population", "result": "−62.56", "unit": "%"}, {"measurement": "ANMS GCSI-DD postprandial fullness subscale score, Baseline", "setting": "[1]; 20 mg QD, mean, ITT Population", "result": 2.84}, {"measurement": "ANMS GCSI-DD postprandial fullness subscale score, Change from baseline to Day 14/EOT", "setting": "[1]; 20 mg QD, mean, ITT Population", "result": "−1.31"}, {"measurement": "ANMS GCSI-DD postprandial fullness subscale score, Day 14/EOT", "setting": "[1]; 20 mg QD, mean, ITT Population", "result": 1.53}, {"measurement": "ANMS GCSI-DD postprandial fullness subscale score, Percent change from baseline to Day 14/EOT", "setting": "[1]; 20 mg QD, mean, ITT Population", "result": "−45.50", "unit": "%"}, {"measurement": "ANMS GCSI-DD total score, Baseline", "setting": "[1]; 20 mg QD, mean, ITT Population", "result": 2.13}, {"measurement": "ANMS GCSI-DD total score, Day 14/EOT", "setting": "[1]; 20 mg QD, mean, ITT Population", "result": 0.88}, {"measurement": "ANMS GCSI-DD total score, change from baseline to Day 14/EOT", "setting": "[1]; 20 mg QD, mean, ITT Population", "result": "−1.25"}, {"measurement": "ANMS GCSI-DD total score, percent change from baseline to Day 14/EOT", "setting": "[1]; 20 mg QD, mean, ITT Population", "result": "−55.99", "unit": "%"}, {"measurement": "ANMS GCSI-DD upper abdominal pain subscale score, Baseline", "setting": "[1]; 20 mg QD, mean, ITT Population", "result": 1.96}, {"measurement": "ANMS GCSI-DD upper abdominal pain subscale score, Change from baseline to Day 14/EOT", "setting": "[1]; 20 mg QD, mean, ITT Population", "result": "−1.09"}, {"measurement": "ANMS GCSI-DD upper abdominal pain subscale score, Day 14/EOT", "setting": "[1]; 20 mg QD, mean, ITT Population", "result": 0.87}, {"measurement": "ANMS GCSI-DD upper abdominal pain subscale score, Percent change from baseline to Day 14/EOT", "setting": "[1]; 20 mg QD, mean, ITT Population", "result": "−41.03", "unit": "%"}, {"measurement": "ANMS GCSI-DD vomiting subscale score, Baseline", "setting": "[1]; 20 mg QD, mean, ITT Population", "result": 0.53}, {"measurement": "ANMS GCSI-DD vomiting subscale score, Change from baseline to Day 14/EOT", "setting": "[1]; 20 mg QD, mean, ITT Population", "result": "−0.47"}, {"measurement": "ANMS GCSI-DD vomiting subscale score, Day 14/EOT", "setting": "[1]; 20 mg QD, mean, ITT Population", "result": 0.07}, {"measurement": "ANMS GCSI-DD vomiting subscale score, Percent change from baseline to Day 14/EOT", "setting": "[1]; 20 mg QD, mean, ITT Population", "result": "−94.64", "unit": "%"}, {"measurement": "ANMS GCSI-DD total score and all subscale scores at Day 14/EOT, manual scoring", "setting": "[1]; all deudomperidone treatment groups, placebo also decreased", "result": "decreased from baseline"}, {"measurement": "Clinical Grading Assessment Scale, investigator response: Improved", "setting": "[2]; 5 mg BID, N′ = 9", "result": "6 (66.7) n (%)"}, {"measurement": "Clinical Grading Assessment Scale, investigator response: No change", "setting": "[2]; 5 mg BID, N′ = 9", "result": "3 (33.3) n (%)"}, {"measurement": "Clinical Grading Assessment Scale, investigator response: Worsened", "setting": "[2]; 5 mg BID, N′ = 9", "result": "0 (0.0) n (%)"}, {"measurement": "Clinical Grading Assessment Scale, subject response: Improved", "setting": "[2]; 5 mg BID, N′ = 9", "result": "5 (55.6) n (%)"}, {"measurement": "Clinical Grading Assessment Scale, subject response: No change", "setting": "[2]; 5 mg BID, N′ = 9", "result": "4 (44.4) n (%)"}, {"measurement": "Clinical Grading Assessment Scale, subject response: Worsened", "setting": "[2]; 5 mg BID, N′ = 9", "result": "0 (0.0) n (%)"}, {"measurement": "CPGAS score, investigator, mean (SD)", "setting": "[2]; 5 mg BID", "result": "2.2 (2.05)"}, {"measurement": "CPGAS score, subject, mean (SD)", "setting": "[2]; 5 mg BID", "result": "2.1 (2.26)"}, {"measurement": "Clinical Grading Assessment Scale, subject response: Improved", "setting": "[2]; 10 mg BID, N′ = 23", "result": "17 (73.9) n (%)"}, {"measurement": "Clinical Grading Assessment Scale, subject response: No change", "setting": "[2]; 10 mg BID, N′ = 23", "result": "5 (21.7) n (%)"}, {"measurement": "Clinical Grading Assessment Scale, subject response: Worsened", "setting": "[2]; 10 mg BID, N′ = 23", "result": "1 (4.3) n (%)"}, {"measurement": "Clinical Grading Assessment Scale, investigator response: Improved", "setting": "[2]; 10 mg BID, N′ = 30", "result": "22 (73.3) n (%)"}, {"measurement": "Clinical Grading Assessment Scale, investigator response: No change", "setting": "[2]; 10 mg BID, N′ = 30", "result": "8 (26.7) n (%)"}, {"measurement": "Clinical Grading Assessment Scale, investigator response: Worsened", "setting": "[2]; 10 mg BID, N′ = 30", "result": "0 (0.0) n (%)"}, {"measurement": "CPGAS score, investigator, mean (SD)", "setting": "[2]; 10 mg BID", "result": "2.5 (1.98)"}, {"measurement": "CPGAS score, subject, mean (SD)", "setting": "[2]; 10 mg BID", "result": "3.0 (2.70)"}, {"measurement": "Clinical Grading Assessment Scale, subject response: Improved", "setting": "[2]; 20 mg QD, N′ = 14", "result": "9 (64.3) n (%)"}, {"measurement": "Clinical Grading Assessment Scale, subject response: No change", "setting": "[2]; 20 mg QD, N′ = 14", "result": "5 (35.7) n (%)"}, {"measurement": "Clinical Grading Assessment Scale, subject response: Worsened", "setting": "[2]; 20 mg QD, N′ = 14", "result": "0 (0.0) n (%)"}, {"measurement": "Clinical Grading Assessment Scale, investigator response: Improved", "setting": "[2]; 20 mg QD, N′ = 15", "result": "11 (73.3) n (%)"}, {"measurement": "Clinical Grading Assessment Scale, investigator response: No change", "setting": "[2]; 20 mg QD, N′ = 15", "result": "4 (26.7) n (%)"}, {"measurement": "Clinical Grading Assessment Scale, investigator response: Worsened", "setting": "[2]; 20 mg QD, N′ = 15", "result": "0 (0.0) n (%)"}, {"measurement": "CPGAS score, investigator, mean (SD)", "setting": "[2]; 20 mg QD", "result": "2.9 (2.26)"}, {"measurement": "CPGAS score, subject, mean (SD)", "setting": "[2]; 20 mg QD", "result": "2.9 (2.62)"}]}]}
